# From patent publication US7495027B2, “3-aryl-4-hydroxyfuranone compounds and the human and animal health use thereof” (Wyeth, priority 2003, dated 2009)
# Test system: C. elegans
# Assay: Efficacy against nematodes (C. elegans motility rating)
# Parameters: key: 0: no effect; 7: reduced movement in 24 h; 8: dead in 24 h; 9: dead in 4 h
# Details: observations at 4 h and 24 h postimmersion
# Protocol: Evaluation of the Efficacy of a 3-Aryl-4-Hydroxyfuranone Against Nematodes
# In this evaluation, cultures of C. elegans are maintained on E. coli lawns on Nematode Growth Agar at 20° C. New cultures are established twice a week. Nematodes for testing are rinsed from plates using M9 Buffer. […] One μL of this solution is added to each well of a 96 well plate. A mixture of C. elegans in M9 Buffer (100 μL) is added to each well, such that approximately 50 worms of mixed stages (L1, L2, L3, L4 and adults) are present in each well at a final concentration of 100 ppm, 150 ppm or […] of test compound. Concentration of test compound may be varied by gradient dilution of the stock DMSO solution. Observations are made under a dissecting microscope at 4 h and 24 h postimmersion. A rating is based on the motility of the larvae and adults, using the rating system shown below.
Compound,Rating (dose 150 ppm),Rating (dose 100 ppm),also measured
O=C1O/C(=C\c2ccc(-c3ccccc3CO)cc2)C(O)=C1c1ccccc1CO,0,–,–
Cc1cccc(C2=C(O)C(=Cc3cc(C(F)(F)F)ccc3Cl)OC2=O)c1C,–,–,Rating (dose 200 μM): 0
Cc1ccc(C)c(C2=C(O)/C(=C/c3cc(C(F)(F)F)ccc3Cl)OC2=O)c1,–,–,Rating (dose 200 μM): 0
COc1ccccc1-c1ccc(C=C2OC(=O)C(c3cc(Cl)cc(Cl)c3)=C2O)cc1C,0,–,–
COc1cc(/C=C2\OC(=O)C(c3cc(Cl)cc(Cl)c3)=C2O)ccc1-c1ccccc1C,9,–,–
O=C1O/C(=C\c2ccc(-c3cccc(C(F)(F)F)c3)cc2)C(O)=C1c1cccc(C(F)(F)F)c1,8,–,–
O=C1OC(=Cc2ccc(-c3cccc(CO)c3)cc2)C(O)=C1c1cccc(CO)c1,0,–,–
COc1ccc(/C=C2\OC(=O)C(c3cccc(Cl)c3)=C2O)c2ccccc12,9,–,–
O=C1O/C(=C\c2ccc(N3CCOCC3)c3ccccc23)C(O)=C1c1cccc(Cl)c1,0,–,–
CCOC(=O)N1CCN(c2ccc(/C=C3\OC(=O)C(c4cccc(Cl)c4)=C3O)cc2F)CC1,7,–,–
Cc1cc(/C=C2\OC(=O)C(c3cccc(Cl)c3)=C2O)ccc1-c1ccccc1C(F)(F)F,9,–,–
Cc1cc(/C=C2\OC(=O)C(c3cccc(Cl)c3)=C2O)ccc1-c1ccccc1Cl,9,–,–
COc1ccccc1-c1ccc(C=C2OC(=O)C(c3cccc(Cl)c3)=C2O)cc1C,7,–,–
COc1cc(/C=C2\OC(=O)C(c3cccc(Cl)c3)=C2O)ccc1-c1ccccc1C(F)(F)F,9,–,–
COc1cc(/C=C2\OC(=O)C(c3cccc(Cl)c3)=C2O)ccc1-c1ccccc1Cl,8,–,–
O=C1O/C(=C\c2cc(C(F)(F)F)ccc2Cl)C(O)=C1c1ccc(N2CCOCC2)c(F)c1,0,–,–
CC(=O)Nc1cccc(C2=C(O)C(=Cc3ccc(-c4cccc(NC(C)=O)c4)cc3)OC2=O)c1,0,–,–
CC(C)c1cccc(C2=C(O)/C(=C/c3cc(C(F)(F)F)ccc3Cl)OC2=O)c1,–,–,Rating (dose 200 μM): 0
Cc1ccc(C2=C(O)C(=Cc3cccc(C(F)(F)F)c3Cl)OC2=O)cc1C,–,–,Rating (dose 200 μM): 9
Cc1ccc(C2=C(O)/C(=C/c3cc(C(F)(F)F)ccc3Cl)OC2=O)cc1C,–,–,Rating (dose 200 μM): 0
Cc1cc(C)cc(C2=C(O)/C(=C/c3cc(C(F)(F)F)ccc3Cl)OC2=O)c1,–,–,Rating (dose 200 μM): 0

Compound,Rating (dose 150 ppm),Rating (dose 100 ppm),also measured
O=C1OC(=Cc2ccc(-c3cc(C(F)(F)F)cc(C(F)(F)F)c3)cc2)C(O)=C1c1cc(C(F)(F)F)cc(C(F)(F)F)c1,0,–,–
CN(C)c1ccc(C=C2OC(=O)C(c3cc(Cl)cc(Cl)c3)=C2O)c2ccccc12,0,–,–
COc1ccc(/C=C2\OC(=O)C(c3cc(Cl)cc(Cl)c3)=C2O)c2ccccc12,0,–,–
O=C1O/C(=C\c2ccc(N3CCOCC3)c3ccccc23)C(O)=C1c1cc(Cl)cc(Cl)c1,0,–,–
O=C1OC(=Cc2ccccc2OCc2ccccc2)C(O)=C1c1cc(Cl)cc(Cl)c1,0,–,–
O=C1O/C(=C\c2ccc(N3CCN(c4ccccc4Cl)CC3)c(Cl)c2)C(O)=C1c1cc(Cl)cc(Cl)c1,0,–,–
CCOC(=O)N1CCN(c2ccc(C=C3OC(=O)C(c4cc(Cl)cc(Cl)c4)=C3O)cc2F)CC1,0,–,–
CCOC(=O)CNC(=O)CNC(=O)c1cccc(/C=C2\OC(=O)C(c3cc(Cl)cc(Cl)c3)=C2O)c1,0,–,–
O=C1OC(=Cc2cccc(OCc3ccccc3)c2)C(O)=C1c1cc(Cl)cc(Cl)c1,0,–,–
Cc1cc(/C=C2\OC(=O)C(c3cc(Cl)cc(Cl)c3)=C2O)ccc1-c1ccccc1Cl,7,–,–
COc1cc(/C=C2\OC(=O)C(c3cc(Cl)cc(Cl)c3)=C2O)ccc1-c1ccccc1C(F)(F)F,0,–,–
Cc1ccccc1-c1ccc(C=C2OC(=O)C(c3cc(Cl)cc(Cl)c3)=C2O)cc1C,0,–,–
COc1ccccc1-c1ccc(/C=C2\OC(=O)C(c3cc(Cl)cc(Cl)c3)=C2O)cc1OC,0,–,–
O=C1O/C(=C\c2ccc(-c3cc(Cl)cc(Cl)c3)cc2)C(O)=C1c1cc(Cl)cc(Cl)c1,7,–,–
CN(C)c1ccc(/C=C2\OC(=O)C(c3ccc(C(F)(F)F)cc3)=C2O)c2ccccc12,0,–,–
Cc1ccc(C2=C(O)/C(=C/c3ccc(-c4ccc(C)cc4)cc3)OC2=O)cc1,0,–,–
N#Cc1ccc(C2=C(O)C(=Cc3ccc(-c4ccc(Cl)cc4)cc3)OC2=O)cc1,9,–,–
CN(C)c1ccc(/C=C2\OC(=O)C(c3ccc(Cl)cc3)=C2O)c2ccccc12,0,–,–
CCOc1ccc(-c2ccc(C3=C(O)/C(=C/c4cc(C(F)(F)F)ccc4F)OC3=O)cc2)cc1,–,–,Rating (dose 200 μM): 9
CCCCc1ccc(-c2ccc(C3=C(O)C(=Cc4cccc(C(F)(F)F)c4Cl)OC3=O)cc2)cc1,–,–,Rating (dose 200 μM): 9
CCCCc1ccc(-c2ccc(C3=C(O)/C(=C/c4cc(C(F)(F)F)ccc4F)OC3=O)cc2)cc1,–,–,Rating (dose 200 μM): 0

Compound,Rating (dose 150 ppm),Rating (dose 100 ppm),also measured
CCCCc1ccc(-c2ccc(C3=C(O)C(=Cc4cc(F)cc(C(F)(F)F)c4)OC3=O)cc2)cc1,–,–,Rating (dose 200 μM): 9
CCCc1ccc(-c2ccc(C3=C(O)/C(=C/c4cccc(C(F)(F)F)c4Cl)OC3=O)cc2)cc1,–,–,Rating (dose 200 μM): 9
CCCc1ccc(-c2ccc(C3=C(O)/C(=C/c4cc(C(F)(F)F)ccc4Cl)OC3=O)cc2)cc1,–,–,Rating (dose 200 μM): 0
CCCc1ccc(-c2ccc(C3=C(O)/C(=C/c4cc(C(F)(F)F)ccc4F)OC3=O)cc2)cc1,–,–,Rating (dose 200 μM): 9
CC(C)(C)c1ccc(-c2ccc(C3=C(O)/C(=C/c4cccc(C(F)(F)F)c4)OC3=O)cc2)cc1,–,–,Rating (dose 200 μM): 0
CCc1ccc(C2=C(O)/C(=C/c3cc(C(F)(F)F)ccc3Cl)OC2=O)cc1,–,–,Rating (dose 200 μM): 9
CC(C)c1ccc(C2=C(O)/C(=C/c3cccc(C(F)(F)F)c3Cl)OC2=O)cc1,–,–,Rating (dose 200 μM): 9
CC(C)(C)c1ccc(-c2ccc(C3=C(O)/C(=C/c4ccc(-c5ccccc5)cc4)OC3=O)cc2)cc1,0,–,–
O=C1OC(=Cc2ccc(Cl)c(Cl)c2)C(O)=C1c1ccc(Cl)s1,–,9,–
O=C1O/C(=C\c2ccc(F)c(F)c2)C(O)=C1c1ccc(Cl)s1,–,9,–
O=C1O/C(=C\c2ccc(C(F)(F)F)cc2)C(O)=C1c1ccc(Cl)s1,–,9,–
N#Cc1ccc(/C=C2\OC(=O)C(c3ccc(Cl)s3)=C2O)cc1,–,9,–
O=C1O/C(=C\c2ccc(Cl)cc2)C(O)=C1c1ccc(Cl)s1,–,9,–
O=C1O/C(=C\c2ccc(F)c(C(F)(F)F)c2)C(O)=C1c1ccc(Cl)s1,–,9,–
O=C1O/C(=C\c2ccc(F)cc2)C(O)=C1c1ccc(Cl)s1,–,9,–
O=C1O/C(=C\c2ccc(OC(F)(F)F)cc2)C(O)=C1c1ccc(Cl)s1,–,9,–
O=C1O/C(=C\c2ccc(OC(F)F)cc2)C(O)=C1c1ccc(Cl)s1,–,9,–
O=C1O/C(=C\c2ccc(OCC3CC3)cc2)C(O)=C1c1ccc(Cl)s1,–,9,–
O=C1OC(=Cc2ccc(Cl)s2)C(O)=C1c1ccc(Cl)s1,–,9,–
O=C1OC(=Cc2ccc(-c3ccc(Cl)cc3)cc2)C(O)=C1c1ccc(C(F)(F)F)cc1 (mixture of isomers),–,9,–
N#Cc1ccc(C2=C(O)C(=Cc3ccc(-c4ccc(C(F)(F)F)cc4)cc3)OC2=O)cc1 (mixture of isomers),–,9,–

Compound,Rating (dose 150 ppm),Rating (dose 100 ppm),also measured
COc1ccc(-n2ncc(C=C3OC(=O)C(c4ccc(OC(F)(F)F)cc4)=C3O)c2C)cc1 (mixture of isomers),–,0,–
O=C1OC(=Cc2cccnc2Cl)C(O)=C1c1ccc(OC(F)(F)F)cc1 (mixture of isomers),–,9,–
Cc1nc(C=C2OC(=O)C(c3ccc(OC(F)(F)F)cc3)=C2O)c[nH]1 (mixture of isomers),–,0,–
O=C1OC(=Cc2c[nH]c(-c3ccccc3)n2)C(O)=C1c1ccc(OC(F)(F)F)cc1 (mixture of isomers),–,0,–
O=C1OC(=Cc2ccc3c(c2)OC(F)(F)O3)C(O)=C1c1ccc(OC(F)(F)F)cc1 (mixture of isomers),–,9,–
O=C1OC(=Cc2ccncc2Cl)C(O)=C1c1ccc(OC(F)(F)F)cc1 (mixture of isomers),–,9,–
O=C1OC(=Cc2ccc(OC(F)(F)C(F)F)cc2)C(O)=C1c1ccc(OC(F)(F)F)cc1 (mixture of isomers),–,9,–
O=C1OC(=Cc2cnccc2-c2cccc(Cl)c2)C(O)=C1c1ccc(OC(F)(F)F)cc1 (mixture of isomers),–,9,–
O=C1OC(=Cc2cnccc2-c2ccc(Cl)cc2)C(O)=C1c1ccc(OC(F)(F)F)cc1 (mixture of isomers),–,9,–
O=C1OC(=Cc2cnccc2-c2ccc(OC(F)(F)F)cc2)C(O)=C1c1ccc(OC(F)(F)F)cc1 (mixture of isomers),–,9,–
O=C1OC(=Cc2ccc(-c3ccc(Cl)s3)cc2)C(O)=C1c1ccc(OC(F)(F)F)cc1 (mixture of isomers),–,9,–
O=C1OC(=Cc2cnccc2-c2ccc(Cl)s2)C(O)=C1c1ccc(OC(F)(F)F)cc1 (mixture of isomers),–,9,–
Cn1cc(Cl)c(C=C2OC(=O)C(c3ccc(OC(F)(F)F)cc3)=C2O)n1 (mixture of isomers),–,0,–
O=C1OC(=Cc2ccc(OCC3CC3)cc2)C(O)=C1c1ccc(OC(F)(F)F)cc1 (mixture of isomers),–,0,–
CCCOc1ccc(C=C2OC(=O)C(c3ccc(OC(F)(F)F)cc3)=C2O)cc1 (mixture of isomers),–,0,–
O=C1OC(=Cc2ccc(-c3ccc(F)c(C(F)(F)F)c3)o2)C(O)=C1c1ccc(OC(F)(F)F)cc1 (mixture of isomers),–,9,–
Cc1nn(C)c(Cl)c1C=C1OC(=O)C(c2ccc(OC(F)(F)F)cc2)=C1O (mixture of isomers),–,0,–
Cc1ccccc1-n1ncc(C=C2OC(=O)C(c3ccc(OC(F)(F)F)cc3)=C2O)c1C (mixture of isomers),–,0,–
